What was measured:
Candida albicans [1] = experiment: Antifungal activity against Candida albicans ATCC 44859 after 48 hrs by broth microdilution method; assay type: functional; conditions: ATCC 44859, 48 h
Lichtheimia corymbifera [2] = experiment: Antifungal activity against Absidia corymbifera 272 after 24 hrs by broth microdilution method; assay type: functional; conditions: Lichtheimia corymbifera, 272, 24 h
Mycobacterium kansasii [3] = experiment: Antimycobacterial activity against Mycobacterium kansasii isolate 6509/96 after 21 days by micromethod; assay type: functional; conditions: isolate 6509/96, 504 h
Klebsiella pneumoniae [4] = experiment: Antibacterial activity against Klebsiella pneumoniae HK11750/08 after 48 hrs by broth microdilution method; assay type: functional; conditions: HK11750/08, 48 h
Candida tropicalis [5] = experiment: Antifungal activity against Candida tropicalis 156 after 48 hrs by broth microdilution method; assay type: functional; conditions: Candida tropicalis, 156, 48 h
Trichosporon asahii [6] = experiment: Antifungal activity against Trichosporon asahii 1188 after 48 hrs by broth microdilution method; assay type: functional; conditions: Trichosporon asahii, 1188, 48 h
Enterococcus sp. [7] = experiment: Antibacterial activity against Enterococcus sp. HK14365/08 after 48 hrs by broth microdilution method; assay type: functional; conditions: HK14365/08, 48 h
Escherichia coli [8] = experiment: Antibacterial activity against Escherichia coli ATCC 8739 after 48 hrs by broth microdilution method; assay type: functional; conditions: ATCC 8739, 48 h
Staphylococcus aureus [9] = experiment: Antibacterial activity against methicillin-resistant Staphylococcus aureus HK5996/08 after 24 hrs by broth microdilution method; assay type: functional; conditions: HK5996/08, 24 h
Enterococcus sp. [10] = experiment: Antibacterial activity against Enterococcus sp. HK14365/08 after 24 hrs by broth microdilution method; assay type: functional; conditions: HK14365/08, 24 h
Staphylococcus aureus [11] = experiment: Antibacterial activity against methicillin-resistant Staphylococcus aureus HK5996/08 after 48 hrs by broth microdilution method; assay type: functional; conditions: HK5996/08, 48 h
Klebsiella pneumoniae [12] = experiment: Antibacterial activity against Klebsiella pneumoniae HK11750/08 after 24 hrs by broth microdilution method; assay type: functional; conditions: HK11750/08, 24 h
Staphylococcus aureus [13] = experiment: Antibacterial activity against Staphylococcus aureus ATCC 6538 after 24 hrs by broth microdilution method; assay type: functional; conditions: ATCC 6538, 24 h
Staphylococcus aureus [14] = experiment: Antibacterial activity against Staphylococcus aureus ATCC 6538 after 48 hrs by broth microdilution method; assay type: functional; conditions: ATCC 6538, 48 h
Mycobacterium avium [15] = experiment: Antimycobacterial activity against Mycobacterium avium CNCTC My 330/80 after 14 days by micromethod; assay type: functional; conditions: CNCTC My 330/80, 336 h
[16] = tested on: Mycobacterium tuberculosis; experiment: Antimycobacterial activity against Mycobacterium tuberculosis H37Rv CNCTC My 331/88 after 21 days by micromethod; assay type: functional; conditions: H37Rv CNCTC My 331/88, 504 h
Klebsiella pneumoniae [17] = experiment: Antibacterial activity against extended spectrum beta-lactamase producing Klebsiella pneumoniae HK14368/08 after 48 hrs by broth microdilution method; assay type: functional; conditions: HK14368/08, 48 h
Mycobacterium kansasii [18] = experiment: Antimycobacterial activity against Mycobacterium kansasii isolate 6509/96 after 7 days by micromethod; assay type: functional; conditions: isolate 6509/96, 168 h
Nakaseomyces glabratus [19] = experiment: Antifungal activity against Candida glabrata 20/I after 24 hrs by broth microdilution method; assay type: functional
[20] = tested on: Mycobacterium tuberculosis; experiment: Antimycobacterial activity against Mycobacterium tuberculosis H37Rv CNCTC My 331/88 after 14 days by micromethod; assay type: functional; conditions: H37Rv CNCTC My 331/88, 336 h
Aspergillus fumigatus [21] = experiment: Antifungal activity against Aspergillus fumigatus 231 after 48 hrs by broth microdilution method; assay type: functional; conditions: Aspergillus fumigatus, 231, 48 h
Mycobacterium kansasii [22] = experiment: Antimycobacterial activity against Mycobacterium kansasii isolate 6509/96 after 14 days by micromethod; assay type: functional; conditions: isolate 6509/96, 336 h
Pichia kudriavzevii [23] = experiment: Antifungal activity against Candida krusei E28 after 48 hrs by broth microdilution method; assay type: functional; conditions: E28, 48 h
[24] = tested on: Staphylococcus epidermidis; experiment: Antibacterial activity against Staphylococcus epidermidis HK6966/08 after 48 hrs by broth microdilution method; assay type: functional; conditions: HK6966/08, 48 h
Aspergillus fumigatus [25] = experiment: Antifungal activity against Aspergillus fumigatus 231 after 24 hrs by broth microdilution method; assay type: functional; conditions: Aspergillus fumigatus, 231, 24 h
Mycobacterium kansasii [26] = experiment: Antimycobacterial activity against Mycobacterium kansasii CNCTC My 235/80 after 21 days by micromethod; assay type: functional; conditions: CNCTC My 235/80, 504 h
[27] = tested on: Staphylococcus epidermidis; experiment: Antibacterial activity against Staphylococcus epidermidis HK6966/08 after 24 hrs by broth microdilution method; assay type: functional; conditions: HK6966/08, 24 h
Mycobacterium kansasii [28] = experiment: Antimycobacterial activity against Mycobacterium kansasii CNCTC My 235/80 after 7 days by micromethod; assay type: functional; conditions: CNCTC My 235/80, 168 h
Escherichia coli [29] = experiment: Antibacterial activity against Escherichia coli ATCC 8739 after 24 hrs by broth microdilution method; assay type: functional; conditions: ATCC 8739, 24 h
Klebsiella pneumoniae [30] = experiment: Antibacterial activity against extended spectrum beta-lactamase producing Klebsiella pneumoniae HK14368/08 after 24 hrs by broth microdilution method; assay type: functional; conditions: HK14368/08, 24 h
[31] = tested on: Trichophyton mentagrophytes; experiment: Antifungal activity against Trichophyton mentagrophytes 445 after 72 hrs by broth microdilution method; assay type: functional; conditions: Trichophyton mentagrophytes, 445, 72 h
Nakaseomyces glabratus [32] = experiment: Antifungal activity against Candida glabrata 20/I after 48 hrs by broth microdilution method; assay type: functional
Pseudomonas aeruginosa [33] = experiment: Antibacterial activity against Pseudomonas aeruginosa ATCC 9027 after 24 hrs by broth microdilution method; assay type: functional; conditions: ATCC 9027, 24 h
Lichtheimia corymbifera [34] = experiment: Antifungal activity against Absidia corymbifera 272 after 48 hrs by broth microdilution method; assay type: functional; conditions: Lichtheimia corymbifera, 272, 48 h
Candida albicans [35] = experiment: Antifungal activity against Candida albicans ATCC 44859 after 24 hrs by broth microdilution method; assay type: functional; conditions: ATCC 44859, 24 h
Pseudomonas aeruginosa [36] = experiment: Antibacterial activity against Pseudomonas aeruginosa ATCC 9027 after 48 hrs by broth microdilution method; assay type: functional; conditions: ATCC 9027, 48 h
[37] = tested on: Trichophyton mentagrophytes; experiment: Antifungal activity against Trichophyton mentagrophytes 445 after 120 hrs by broth microdilution method; assay type: functional; conditions: Trichophyton mentagrophytes, 445, 120 h
Mycobacterium kansasii [38] = experiment: Antimycobacterial activity against Mycobacterium kansasii CNCTC My 235/80 after 14 days by micromethod; assay type: functional; conditions: CNCTC My 235/80, 336 h
Mycobacterium avium [39] = experiment: Antimycobacterial activity against Mycobacterium avium CNCTC My 330/80 after 21 days by micromethod; assay type: functional; conditions: CNCTC My 330/80, 504 h
Pichia kudriavzevii [40] = experiment: Antifungal activity against Candida krusei E28 after 24 hrs by broth microdilution method; assay type: functional; conditions: E28, 24 h
CHO-K1 = experiment: Cytotoxicity against CHOK1 cells after 24 hrs by MTT assay; assay type: cell-based; conditions: Cricetulus griseus, CHO-K1, 24 h
Trichosporon asahii [41] = experiment: Antifungal activity against Trichosporon asahii 1188 after 24 hrs by broth microdilution method; assay type: functional; conditions: Trichosporon asahii, 1188, 24 h
Candida tropicalis [42] = experiment: Antifungal activity against Candida tropicalis 156 after 24 hrs by broth microdilution method; assay type: functional; conditions: Candida tropicalis, 156, 24 h

O=[N+]([O-])c1cc(-c2nnn(Cc3cccc(Cl)c3)n2)cc([N+](=O)[O-])c1
27 µM: IC50 (CHO-K1)
8 µM: MIC99 (Mycobacterium avium [39])
1 µM: MIC99 (Mycobacterium kansasii [22]) | MIC99 (Mycobacterium kansasii [28])
4 µM: MIC99 (Mycobacterium avium [15])
2 µM: MIC99 (Mycobacterium kansasii [3]) | MIC99 (Mycobacterium kansasii [26]) | MIC99 (Mycobacterium kansasii [38])
> 500 µM: MIC (Candida albicans [1]) | MIC (Lichtheimia corymbifera [2]) | MIC (Klebsiella pneumoniae [4]) | MIC (Candida tropicalis [5]) | MIC (Trichosporon asahii [6]) | MIC (Enterococcus sp. [7]) | MIC (Escherichia coli [8]) | MIC (Staphylococcus aureus [9]) | MIC (Enterococcus sp. [10]) | MIC (Staphylococcus aureus [11]) | MIC (Klebsiella pneumoniae [12]) | MIC (Staphylococcus aureus [13]) | MIC (Staphylococcus aureus [14]) | MIC (Klebsiella pneumoniae [17]) | MIC (Nakaseomyces glabratus [19]) | MIC (Aspergillus fumigatus [21]) | MIC (Pichia kudriavzevii [23]) | MIC [24] | MIC (Aspergillus fumigatus [25]) | MIC [27] | MIC (Escherichia coli [29]) | MIC (Klebsiella pneumoniae [30]) | MIC [31] | MIC (Nakaseomyces glabratus [32]) | MIC (Pseudomonas aeruginosa [33]) | MIC (Lichtheimia corymbifera [34]) | MIC (Candida albicans [35]) | MIC (Pseudomonas aeruginosa [36]) | MIC [37] | MIC (Pichia kudriavzevii [40]) | MIC (Trichosporon asahii [41]) | MIC (Candida tropicalis [42])
0.5 µM: MIC99 [16] | MIC99 (Mycobacterium kansasii [18]) | MIC99 [20]

O=[N+]([O-])c1cc(-c2nnn(Cc3ccc(Cl)cc3)n2)cc([N+](=O)[O-])c1
8 µM: MIC99 (Mycobacterium avium [15]) | MIC99 (Mycobacterium avium [39])
250 µM: MIC (Candida tropicalis [5]) | MIC (Candida tropicalis [42])
0.25 µM: MIC99 [16] | MIC99 [20] | MIC99 (Mycobacterium kansasii [28])
0.5 µM: MIC99 (Mycobacterium kansasii [18])
500 µM: MIC (Trichosporon asahii [6]) | MIC (Trichosporon asahii [41])
170 µM: IC50 (CHO-K1)
2 µM: MIC99 (Mycobacterium kansasii [3]) | MIC99 (Mycobacterium kansasii [26])
31.2 µM: MIC (Staphylococcus aureus [13]) | MIC (Staphylococcus aureus [14])
> 500 µM: MIC (Candida albicans [1]) | MIC (Lichtheimia corymbifera [2]) | MIC (Klebsiella pneumoniae [4]) | MIC (Enterococcus sp. [7]) | MIC (Escherichia coli [8]) | MIC (Staphylococcus aureus [9]) | MIC (Enterococcus sp. [10]) | MIC (Staphylococcus aureus [11]) | MIC (Klebsiella pneumoniae [12]) | MIC (Klebsiella pneumoniae [17]) | MIC (Nakaseomyces glabratus [19]) | MIC (Aspergillus fumigatus [21]) | MIC (Pichia kudriavzevii [23]) | MIC (Aspergillus fumigatus [25]) | MIC (Escherichia coli [29]) | MIC (Klebsiella pneumoniae [30]) | MIC [31] | MIC (Nakaseomyces glabratus [32]) | MIC (Pseudomonas aeruginosa [33]) | MIC (Lichtheimia corymbifera [34]) | MIC (Candida albicans [35]) | MIC (Pseudomonas aeruginosa [36]) | MIC [37] | MIC (Pichia kudriavzevii [40])
1 µM: MIC99 (Mycobacterium kansasii [22]) | MIC99 (Mycobacterium kansasii [38])
15.6 µM: MIC [24] | MIC [27]

O=[N+]([O-])c1cc(-c2nnn(CSc3nnnn3-c3ccc(Cl)cc3)n2)cc([N+](=O)[O-])c1
1 µM: MIC99 (Mycobacterium kansasii [38])
0.5 µM: MIC99 (Mycobacterium kansasii [3]) | MIC99 (Mycobacterium kansasii [22]) | MIC99 (Mycobacterium kansasii [28])
4 µM: MIC99 (Mycobacterium avium [39])
0.25 µM: MIC99 (Mycobacterium kansasii [18])
> 125 µM: MIC (Candida albicans [1]) | MIC (Lichtheimia corymbifera [2]) | MIC (Klebsiella pneumoniae [4]) | MIC (Candida tropicalis [5]) | MIC (Trichosporon asahii [6]) | MIC (Enterococcus sp. [7]) | MIC (Escherichia coli [8]) | MIC (Staphylococcus aureus [9]) | MIC (Staphylococcus aureus [11]) | MIC (Klebsiella pneumoniae [12]) | MIC (Staphylococcus aureus [13]) | MIC (Staphylococcus aureus [14]) | MIC (Klebsiella pneumoniae [17]) | MIC (Nakaseomyces glabratus [19]) | MIC (Aspergillus fumigatus [21]) | MIC (Pichia kudriavzevii [23]) | MIC [24] | MIC (Aspergillus fumigatus [25]) | MIC (Escherichia coli [29]) | MIC (Klebsiella pneumoniae [30]) | MIC [31] | MIC (Nakaseomyces glabratus [32]) | MIC (Pseudomonas aeruginosa [33]) | MIC (Lichtheimia corymbifera [34]) | MIC (Candida albicans [35]) | MIC (Pseudomonas aeruginosa [36]) | MIC [37] | MIC (Pichia kudriavzevii [40]) | MIC (Trichosporon asahii [41]) | MIC (Candida tropicalis [42])
2 µM: MIC99 (Mycobacterium avium [15]) | MIC99 (Mycobacterium kansasii [26])
0.03 µM: MIC99 [16] | MIC99 [20]
14 µM: IC50 (CHO-K1)
125 µM: MIC (Enterococcus sp. [10]) | MIC [27]

— ChEMBL document CHEMBL4011590, “Structure-activity relationship studies on 3,5-dinitrophenyl tetrazoles as antitubercular agents” (Eur J Med Chem, 2017)
